Experiments:
Experiment in all cases: combination Emax (second highest fraction inhibited in the dose matrix, 72 h); higher = more inhibition; extreme values may be limits of the assay
BPH-1 (Non-Cancerous) = test system: BPH-1 (Non-Cancerous)
Method in brief: (§1)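 After 24 hours at 37°C and 5% CO2 in 1536-well plates, cells in DMEM/F12 or RPMI plus 10% FBS received two-drug dose matrices for 72 hours. Viability came from CellTiter-Glo 2.0 luminescence and was scaled as inhibition, anchored at 0 by vehicle wells and at 1 by blank wells. Combination Emax is taken as the second-highest inhibition in the matrix, and Bliss excess as the observed combination effect less EA + EB − EA·EB, with EA and EB the single-agent effects.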

KS-1 (Glioblastoma) = test system: KS-1 (Glioblastoma)
Method in brief: as §1

MPP-89 (Mesothelioma) = test system: MPP-89 (Mesothelioma)
Method in brief: as §1

[1] = test system: FTC-133 (Thyroid Gland Carcinoma)
Method in brief: as §1

NCI-H2722 (Mesothelioma) = test system: NCI-H2722 (Mesothelioma)
Method in brief: as §1

[2] = test system: Detroit562 (Head and Neck Carcinoma)
Method in brief: as §1

GAMG (Glioblastoma) = test system: GAMG (Glioblastoma)
Method in brief: as §1

[3] = test system: LCLC-97TM1 (Non-Small Cell Lung Carcinoma)
Method in brief: as §1

NCI-H2052 (Mesothelioma) = test system: NCI-H2052 (Mesothelioma)
Method in brief: as §1

[4] = test system: YAPC (Pancreatic Carcinoma)
Method in brief: as §1

Row | Structure (SMILES) | combination Emax (BPH-1 (Non-Cancerous)) | combination Emax (KS-1 (Glioblastoma)) | combination Emax (MPP-89 (Mesothelioma)) | combination Emax [1] | combination Emax (NCI-H2722 (Mesothelioma)) | combination Emax [2] | combination Emax (GAMG (Glioblastoma)) | combination Emax [3] | combination Emax (NCI-H2052 (Mesothelioma)) | combination Emax [4]
1 | CC1(C)CCC(CN2CCN(c3ccc(C(=O)NS(=O)(=O)c4ccc(NCC5CCOCC5)c([N+](=O)[O-])c4)c(Oc4cnc5[nH]ccc5c4)c3)CC2)=C(c2ccc(Cl)cc2)C1 [Venetoclax] + C[C@@H](Nc1cc(F)cc(F)c1)c1cc(C(=O)N(C)C)cc2c(=O)cc(N3CCOCC3)oc12 [AZD8186] (first compound max 1 µM, 7x7, partner max 3 µM) | 0.31 | 0.341 | 0.236 | 0.182 | 0.17 | 0.137 | 0.453 | 0.129 | 0.217 | 0.0625
2 | CC1(C)CCC(CN2CCN(c3ccc(C(=O)NS(=O)(=O)c4ccc(NCC5CCOCC5)c([N+](=O)[O-])c4)c(Oc4cnc5[nH]ccc5c4)c3)CC2)=C(c2ccc(Cl)cc2)C1 [Venetoclax] + Cc1cc2ncnn2cc1Nc1ncc2c(n1)n(C1CCOCC1)c(=O)n2C [AZD7648] (first compound max 1 µM, 7x7, partner max 10 µM) | 0.232 | 0.294 | 0.418 | 0.182 | 0.25 | 0.304 | 0.377 | 0.2 | 0.381 | 0.2
3 | CC1(C)CCC(CN2CCN(c3ccc(C(=O)NS(=O)(=O)c4ccc(NCC5CCOCC5)c([N+](=O)[O-])c4)c(Oc4cnc5[nH]ccc5c4)c3)CC2)=C(c2ccc(Cl)cc2)C1 [Venetoclax] + CN(C)CCCOc1ccc(-c2ccc3ncc4c(c3c2)n(C2CCOCC2)c(=O)n4C)cn1 [AZD0156] (first compound max 1 µM, 7x7, partner max 1 µM) | 0.254 | 0.224 | 0.408 | 0.167 | 0.175 | 0.212 | 0.273 | 0.105 | 0.235 | 0.175
4 | CC(=O)Nc1cccc(-n2c(=O)n(C3CC3)c(=O)c3c(Nc4ccc(I)cc4F)n(C)c(=O)c(C)c32)c1 [Trametinib] + Cc1nc(-c2cn3c(n2)-c2ccc(-c4cnn(C(C)(C)C(N)=O)c4)cc2OCC3)n(C(C)C)n1 [Taselisib] (first compound max 1 µM, 7x7, partner max 10 µM) | 0.94 | 0.832 | 0.796 | 0.338 | 0.666 | 0.954 | 0.783 | 1 | 0.535 | 0.733
5 | COc1nnc2ccc(N3CCC(c4ccc(OCCN5CCN(C)C(=O)[C@H]5C)cc4)CC3)nn12 [AZD5153] + Cc1c2c(nn1C)CSCc1cc(n(C)n1)CSc1cc(c3ccccc3c1)OCCCc1c(C(=O)O)n(C)c3c-2c(Cl)ccc13 [AZD5991] (first compound max 1 µM, 7x7, partner max 1 µM) | 0.86 | 0.629 | 0.581 | 0.615 | 0.508 | 0.877 | 0.425 | 0.733 | 0.328 | 0.365
6 | CC(=O)c1c(C)c2cnc(Nc3ccc(N4CCNCC4)cn3)nc2n(C2CCCC2)c1=O [Palbociclib] + Cn1cnc2c(F)c(Nc3ccc(Br)cc3Cl)c(C(=O)NOCCO)cc21 [Selumetinib] (first compound max 10 µM, 7x7, partner max 10 µM) | 0.518 | 0.438 | 0.14 | 0.202 | 0.113 | 0.588 | 0.314 | 0.64 | 0.189 | 0.379
7 | CC1(C)CCC(CN2CCN(c3ccc(C(=O)NS(=O)(=O)c4ccc(NCC5CCOCC5)c([N+](=O)[O-])c4)c(Oc4cnc5[nH]ccc5c4)c3)CC2)=C(c2ccc(Cl)cc2)C1 [Venetoclax] + C=CCn1c(=O)c2cnc(Nc3ccc(N4CCN(C)CC4)cc3)nc2n1-c1cccc(C(C)(C)O)n1 [AZD1775] (first compound max 1 µM, partner max 1 µM) | 0.377 | 0.504 | 0.841 | 0.86 | 0.311 | 0.545 | 0.836 | 0.891 | 0.249 | 0.307
8 | COc1nnc2ccc(N3CCC(c4ccc(OCCN5CCN(C)C(=O)[C@H]5C)cc4)CC3)nn12 [AZD5153] + C=CCn1c(=O)c2cnc(Nc3ccc(N4CCN(C)CC4)cc3)nc2n1-c1cccc(C(C)(C)O)n1 [AZD1775] (first compound max 1 µM, partner max 1 µM) | 0.88 | 0.686 | 0.482 | 0.837 | 0.58 | 0.823 | 0.665 | 0.848 | 0.407 | 0.461
9 | Cn1cnc2c(F)c(Nc3ccc(Br)cc3Cl)c(C(=O)NOCCO)cc21 [Selumetinib] + C=CCn1c(=O)c2cnc(Nc3ccc(N4CCN(C)CC4)cc3)nc2n1-c1cccc(C(C)(C)O)n1 [AZD1775] (first compound max 10 µM, partner max 1 µM) | 0.535 | 0.277 | 0.566 | 0.778 | 0.304 | 0.639 | 0.527 | 0.87 | 0.284 | 0.396
10 | CN(CCO)CC[C@H](CSc1ccccc1)Nc1ccc(S(=O)(=O)NC(=O)c2ccc(N3CCC([C@@H](O)c4ccccc4-c4ccc(Cl)cc4)CC3)cc2)cc1S(=O)(=O)C(F)(F)F [AZD4320] + CN(C)CCCOc1ccc(-c2ccc3ncc4c(c3c2)n(C2CCOCC2)c(=O)n4C)cn1 [AZD0156] (first compound max 1 µM, 7x7, partner max 1 µM) | 0.474 | 0.239 | 0.236 | 0.44 | 0.285 | 0.168 | 0.197 | 0.107 | 0.201 | 0.129
11 | CN(CCO)CC[C@H](CSc1ccccc1)Nc1ccc(S(=O)(=O)NC(=O)c2ccc(N3CCC([C@@H](O)c4ccccc4-c4ccc(Cl)cc4)CC3)cc2)cc1S(=O)(=O)C(F)(F)F [AZD4320] + C=CCn1c(=O)c2cnc(Nc3ccc(N4CCN(C)CC4)cc3)nc2n1-c1cccc(C(C)(C)O)n1 [AZD1775] (first compound max 1 µM, partner max 1 µM) | 0.709 | 0.549 | 0.628 | 0.919 | 0.55 | 0.684 | 0.643 | 0.933 | 0.374 | 0.278
12 | Cc1c2c(nn1C)CSCc1cc(n(C)n1)CSc1cc(c3ccccc3c1)OCCCc1c(C(=O)O)n(C)c3c-2c(Cl)ccc13 [AZD5991] + C1CN(CCC1(C(=O)N[C@@H](CCO)C2=CC=C(C=C2)Cl)N)C3=NC=NC4=C3C=CN4 [Capivasertib] (first compound max 1 µM, 7x7, partner max 3 µM) | 0.469 | 0.338 | 0.268 | 0.663 | 0.173 | 0.325 | 0.477 | 0.32 | 0.265 | 0.149
13 | NC1(C(=O)N[C@@H](CCO)c2ccc(Cl)cc2)CCN(c2ncnc3[nH]ccc23)CC1 [Capivasertib] + Cn1cnc2c(F)c(Nc3ccc(Br)cc3Cl)c(C(=O)NOCCO)cc21 [Selumetinib] (first compound max 10 µM, 7x7, partner max 10 µM) | 0.716 | 0.551 | 0.386 | 0.608 | 0.336 | 0.798 | 0.653 | 0.849 | 0.443 | 0.346
14 | NC1(C(=O)N[C@@H](CCO)c2ccc(Cl)cc2)CCN(c2ncnc3[nH]ccc23)CC1 [Capivasertib] + COc1nnc2ccc(N3CCC(c4ccc(OCCN5CCN(C)C(=O)[C@H]5C)cc4)CC3)nn12 [AZD5153] (first compound max 10 µM, 7x7, partner max 1 µM) | 0.691 | 0.755 | 0.495 | 0.73 | 0.473 | 0.925 | 0.724 | 0.805 | 0.427 | 0.309
15 | COc1nnc2ccc(N3CCC(c4ccc(OCCN5CCN(C)C(=O)[C@H]5C)cc4)CC3)nn12 [AZD5153] + CC1(C)CCC(CN2CCN(c3ccc(C(=O)NS(=O)(=O)c4ccc(NCC5CCOCC5)c([N+](=O)[O-])c4)c(Oc4cnc5[nH]ccc5c4)c3)CC2)=C(c2ccc(Cl)cc2)C1 [Venetoclax] (first compound max 1 µM, 7x7, partner max 1 µM) | 0.745 | 0.649 | 0.497 | 0.578 | 0.471 | 0.8 | 0.436 | 0.685 | 0.359 | 0.384
16 | Cc1c2c(nn1C)CSCc1cc(n(C)n1)CSc1cc(c3ccccc3c1)OCCCc1c(C(=O)O)n(C)c3c-2c(Cl)ccc13 [AZD5991] + C=CCn1c(=O)c2cnc(Nc3ccc(N4CCN(C)CC4)cc3)nc2n1-c1cccc(C(C)(C)O)n1 [AZD1775] (first compound max 1 µM, partner max 1 µM) | 0.525 | 0.464 | 0.477 | 0.956 | 0.397 | 0.749 | 0.522 | 0.948 | 0.346 | 0.416
17 | COc1nnc2ccc(N3CCC(c4ccc(OCCN5CCN(C)C(=O)[C@H]5C)cc4)CC3)nn12 [AZD5153] + C[C@@H]1COCCN1C2=NC(=NC(=C2)C3(CC3)[S@](=N)(=O)C)C4=C5C=CNC5=NC=C4 [AZD6738] (first compound max 1 µM, 7x7, partner max 10 µM) | 0.831 | 0.69 | 0.604 | 0.782 | 0.589 | 0.919 | 0.682 | 0.87 | 0.209 | 0.529
18 | NC1(C(=O)N[C@@H](CCO)c2ccc(Cl)cc2)CCN(c2ncnc3[nH]ccc23)CC1 [Capivasertib] + C[C@@H]1COCCN1C2=NC(=NC(=C2)C3(CC3)[S@](=N)(=O)C)C4=C5C=CNC5=NC=C4 [AZD6738] (first compound max 10 µM, 7x7, partner max 10 µM) | 0.574 | 0.653 | 0.545 | 0.802 | 0.533 | 0.918 | 0.705 | 0.873 | 0.57 | 0.334
